Here are results for two compounds from patent publication US4201843A, “Process for manufacturing tylosin derivatives” (Sanraku Ocean Co., Ltd., priority 1975, dated 1980).

On the set-up of data set [1]: species or system mice. The conditions noted are these: mouse, in vivo, po, 100 mg/kg. Here is the method:
Another phase of advantages of the said tylosin derivatives is their high blood levels in animals. When each of these compounds is orally administered to mice in a dose of 100 mg/kg, their concentrations in blood were measured to be 5-20 mcg/ml, a substantially high value compared to that of tylosin (<1 mcg/ml). […] Their concentrations in blood one hour after administration reached up to 15-20 mcg/ml.

The test system of data set [2] is Staphylococcus aureus MS 9610. Kind of data set: minimum growth-inhibitory concentration. The format is cell-based. The following applies: MS9610; Staphylococcus aureus MS 9610, drug resistant strain. Here is the method: (§1) The antimicrobial spectra of new tylosin derivatives of this invention are shown in Table 2 by listing the minimum growth inhibitory concentrations (MIC, mcg/ml). […] The toxicity of these compounds was tested in animals by intravenous administration, and the LD50 values in mice are more than 400 mg/kg with all compounds. In therapeutical experiments with mice manually infected by Staphilococcus aureus SMITH, the ED50 values were less than 50 mg/kg (p.o.) with all said tylosin derivatives.
(§2) The strains marked * in Table 2 are the drug resistant strains isolated from patients, namely, Staphilococcus aureus MS-9610 which is resistant to penicillin, tetracycline, erythromycin, leucomycin, spiramycin, josamycin and tylosin, Staphilococcus aureus MS-8710 which is resistant to penicillin, tetracycline, erythromycin, leucomycin and tylosin, and Streptococcus pyogenes MH 771 which is resistant to erythromycin, oleandomycin, leucomycin and tylosin.

Data set [3] concerns Staphylococcus aureus MS 8710. Kind of data set: minimum growth-inhibitory concentration. The format is cell-based. The following applies: MS8710; Staphylococcus aureus MS 8710, drug resistant strain. Here is the method: as §1, §2
Data set [4] has as its system Streptococcus pyogenes MH 771. Kind of data set: minimum growth-inhibitory concentration. Format: cell-based. The following applies: MH771, read-out: minimum growth-inhibitory concentration (MIC). Here is the method:
as §1
(broth-dilution method)
as §2

The subject of data set [5] is Escherichia coli (National Institute of Health). Kind of data set: minimum growth-inhibitory concentration. The format is cell-based. Here is the method: as §1
For data set [6], the system named is Candida tropicalis IAM 4924. Kind of data set: minimum growth-inhibitory concentration. The following applies: IAM4924. The format is cell-based. Here is the method:
as §1

In data set [7] the test system is Bacillus subtilis ATCC 6633. Kind of data set: minimum growth-inhibitory concentration. The following applies: ATCC6633. Format: cell-based. Here is the method: as §1
In data set [8] the test system is Pseudomonas fluorescens NIHJB 254. Kind of data set: minimum growth-inhibitory concentration. Format: cell-based. The following applies: NIHJB254. Here is the method: as §1
Data set [9] concerns Mycobacterium smegmatis ATCC 607. Kind of data set: minimum growth-inhibitory concentration. Format: cell-based. The conditions noted are these: Mycolicibacterium smegmatis, ATCC607. Here is the method: as §1
Data set [10] relates to Candida albicans IAM 4905. Kind of data set: minimum growth-inhibitory concentration. The format is cell-based. The conditions noted are these: IAM4905. Here is the method:
as §1

Data set [11] relates to Staphylococcus aureus FAD209P. Kind of data set: minimum growth-inhibitory concentration. The conditions noted are these: read-out: minimum growth-inhibitory concentration (MIC). Format: cell-based. Here is the method: as §1
The subject of data set [12] is Bacillus megaterium NRRL B-938. Kind of data set: minimum growth-inhibitory concentration. The format is cell-based. The conditions noted are these: Priestia megaterium, NRRLB938. Here is the method: as §1
Another data set has as its system Micrococcus flavus I. Kind of data set: minimum growth-inhibitory concentration. The format is cell-based. Here is the method:
as §1

Data set [13] has as its system Staphylococcus aureus SMITH. Kind of data set: minimum growth-inhibitory concentration. The format is cell-based. Here is the method:
as §1

The subject of data set [14] is Bacillus cereus ATCC 9634. Kind of data set: minimum growth-inhibitory concentration. The format is cell-based. The conditions noted are these: ATCC9634. Here is the method:
as §1

Data set [15] deals with Corynebacterium bovis 1810. Kind of data set: minimum growth-inhibitory concentration. Format: cell-based. Here is the method:
as §1

The subject of data set [16] is Proteus morganii (The Institute for Infectious Diseases). Kind of data set: minimum growth-inhibitory concentration. Format: cell-based. The following applies: Morganella morganii. Here is the method:
as §1

The test system of the next data set is Sarcina lutea ATCC 9341. Kind of data set: minimum growth-inhibitory concentration. The format is cell-based. The conditions noted are these: Micrococcus luteus, ATCC9341. Here is the method: as §1
For data set [17] the following is noted: electrometric determination in dimethyl formamide-H2O=2:1 by volume; Japanese Patent (Kokoku) Showa No. 36-22649; cited from earlier work.

≈ marks a conversion by molar mass, not a printed value.

`CC[C@H]1OC(=O)C[C@@H](O)[C@H](C)[C@@H](O[C@@H]2O[C@H](C)[C@@H](O[C@H]3C[C@@](C)(O)[C@@H](O)[C@H](C)O3)[C@H](N(C)C)[C@H]2O)[C@@H](CC=O)C[C@@H](C)C(=O)/C=C/C(C)=C/[C@@H]1CO[C@@H]1O[C@H](C)[C@@H](O)[C@@H](OC)[C@H]1OC` [tylosin] had a concentration in blood in data set [1] of less than 1000 ng/mL. Also, the MIC in [2] is more than 250 µg/mL; in data set [3], more than 250 µg/mL; in data set [4], 250 µg/mL (≈ 273 µM); in data set [5], 250 µg/mL (≈ 273 µM); in data set [6], more than 250 µg/mL; in data set [7], 0.49 µg/mL (≈ 0.535 µM). Besides, the MIC was more than 250 µg/mL in data set [8]; 7.81 µg/mL (≈ 8.53 µM) in data set [9]; more than 250 µg/mL in [10]; 0.49 µg/mL (≈ 0.535 µM) in data set [11]; 0.25 µg/mL (≈ 0.273 µM) in data set [12]; 0.12 µg/mL (≈ 0.131 µM) against Micrococcus flavus I. Moreover, the MIC in [13] is 0.25 µg/mL (≈ 0.273 µM); in data set [14], 0.49 µg/mL (≈ 0.535 µM); in data set [15], 0.5 µg/mL (≈ 0.546 µM); in data set [16], more than 250 µg/mL; against Sarcina lutea ATCC 9341, 0.12 µg/mL (≈ 0.131 µM).
In the case of tylosin acetyl ester, the pk value entry in data set [17] is on record as “about 5.1”.
